Test results taken from patent US10253069B2, “Compositions and methods for regulating arterial tone” (University of Virginia Patent Foundation, priority 2012, dated 2019).

Experiments:
eNOS and Hb α complex = target: T1, eNOS and Hb α complex (Mus musculus, UniProt P70313); assay: Proximity ligation assay for eNOS and Hb α on thoracodorsal arteries
T1 construct: from tissue; host or cells: isolated mouse thoracodorsal arteries
T1 sequence (P70313 2-1202 limits assumed): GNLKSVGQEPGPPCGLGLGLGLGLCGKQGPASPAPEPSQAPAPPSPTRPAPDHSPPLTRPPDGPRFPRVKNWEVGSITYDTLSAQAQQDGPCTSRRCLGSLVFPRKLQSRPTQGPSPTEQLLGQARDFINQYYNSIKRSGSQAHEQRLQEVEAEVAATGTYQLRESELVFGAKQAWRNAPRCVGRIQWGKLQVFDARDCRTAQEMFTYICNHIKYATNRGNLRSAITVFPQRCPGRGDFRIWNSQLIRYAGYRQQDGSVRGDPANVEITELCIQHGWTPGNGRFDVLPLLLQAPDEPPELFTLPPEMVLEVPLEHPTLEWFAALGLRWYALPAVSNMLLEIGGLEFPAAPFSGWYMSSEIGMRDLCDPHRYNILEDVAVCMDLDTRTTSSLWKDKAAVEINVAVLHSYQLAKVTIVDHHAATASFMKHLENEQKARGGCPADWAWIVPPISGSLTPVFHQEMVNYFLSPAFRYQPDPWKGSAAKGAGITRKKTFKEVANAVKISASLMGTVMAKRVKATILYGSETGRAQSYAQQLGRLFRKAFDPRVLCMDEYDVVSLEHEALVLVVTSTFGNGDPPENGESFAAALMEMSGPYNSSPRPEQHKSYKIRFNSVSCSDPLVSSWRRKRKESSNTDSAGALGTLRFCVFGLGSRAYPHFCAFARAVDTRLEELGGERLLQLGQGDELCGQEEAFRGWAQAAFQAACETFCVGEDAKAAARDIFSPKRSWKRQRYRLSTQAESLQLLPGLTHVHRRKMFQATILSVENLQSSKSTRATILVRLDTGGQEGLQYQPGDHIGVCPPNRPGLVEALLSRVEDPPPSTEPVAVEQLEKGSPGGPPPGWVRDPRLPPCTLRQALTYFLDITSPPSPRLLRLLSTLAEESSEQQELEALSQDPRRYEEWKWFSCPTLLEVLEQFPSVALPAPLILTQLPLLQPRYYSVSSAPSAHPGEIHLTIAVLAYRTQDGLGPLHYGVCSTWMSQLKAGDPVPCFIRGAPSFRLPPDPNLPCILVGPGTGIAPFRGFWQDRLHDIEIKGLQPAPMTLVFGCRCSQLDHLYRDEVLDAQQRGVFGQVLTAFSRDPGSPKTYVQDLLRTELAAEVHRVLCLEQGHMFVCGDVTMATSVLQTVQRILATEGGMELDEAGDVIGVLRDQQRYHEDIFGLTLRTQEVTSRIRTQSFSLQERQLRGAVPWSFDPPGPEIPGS
Protocol: Isolated thoracodorsal arteries were perfused with Scr X or Hb α X peptide (5 μmol/L) for 20 minutes and immediately immersed in 4% paraformaldehyde, paraffin-embedded and sectioned as previously described^12. Next, sections were de-paraffinized, blocked and incubated with 1:500 mouse anti-eNOS (BD Biosciences), 1:500 rabbit anti-Hb α and 1:500 mouse anti-caveolin-1 (BD Biosciences) primary antibodies overnight at 4° C. The following day, secondary antibodies conjugated with oligonucleotide PLA probes were added, ligated and rolling circle amplification with fluorescent oligonucleotides identified positive interaction sites as previously described^9. All images were visualized and captured using an Olympus Fluoview 1000 confocal microscope. For proximity ligation assay quantitation, positive interactions indicated by red punctates on the endothelium were counted and divided by the circumference of the lumen using Metamorph software.

thoracodorsal arteries [1] = assay: cGMP assay on thoracodorsal arteries; parameters: species or system mouse
Protocol: Isolated thoracodorsal arteries were cannulated and pressurized to 80 mmHg as previously described^13. Arteries were perfused with 5 μM Scr X or Hb α X with addition of 0.5 mmol/L of the phosphodiesterase inhibitor 3-isobutyl-1-methylxanthine (IBMX) (all conditions) or 100 μmol/L the nitric oxide synthase inhibitor L-NG-Nitroarginine Methyl Ester (L-NAME) for 20 minutes. Arteries were then stimulated with 50 μM phenylephrine for 10 minutes and immediately immersed in lysis buffer provided in the cGMP XP assay Kit (Cell Signaling) according to manufactures instructions. Briefly, a competition enzyme-linked immunoassay was used to generate a standard curve of known cGMP concentrations followed by calculating cGMP concentrations of experimental samples. The cGMP concentration in experimental samples was normalized to total protein concentration.

[2] = test system: eNOS phosphorylation on serine 1177; assay: Western blot of pS1177 eNOS in coronary endothelial cells; type: cell-based, human; conditions: 5 μmol/L peptide, 20 minutes
Protocol: Primary coronary endothelial cells (Lonza) were cultured on plastic 6-well dishes as previously described^9. For studies involving basal NO release, endothelial cells were incubated with 5 μmol/L of Scr X or Hb α X for 20 minutes followed by medium collection and nitrite measurements as described below. For bradykinin studies, coronary endothelial cells were grown to confluence followed by serum starvation overnight in a cocktail of Lonza EGM-2 medium supplemented with EGM-2 bullet kit and Opti MEM reduced growth medium using a ratio of 1:9 respectively. The next day, endothelial cells were incubated with Scr X or Hb α X peptide for 20 minutes followed by the addition of 10 μM bradykinin (Sigma) for 5 minutes followed by medium collection for nitrite measurements as described below.
Endothelial cells were harvested in lysis buffer, sonicated and subjected to electrophoresis using 10% Bis-Tris gels (Invitrogen) as previously described^13. Proteins were transferred to nitrocellulose, incubated with phospho-eNOS S1177 (BD Biosciences) or total eNOS (Sigma) and visualized and quantitated using Li-Cor Odyssey Imager as previously described^14.

thoracodorsal arteries [3] = assay: Pressure myography on thoracodorsal arteries, phenylephrine dose response with peptides; parameters: species or system mouse
[4] = test system: thoracodorsal arteries from eNOS−/− animals; assay: Pressure myography on thoracodorsal arteries from eNOS−/− mice; parameters: species or system mouse

Substance: Peptide LSFPTTKTYF (SEQ ID NO:2), first ten amino acids of the Hb α sequence, with HIV-tat tag YGRKKRRQRRR at the N-terminus [Hb α X]
- Inhibition of association (eNOS and Hb α complex; ex vivo studies): > 90%
- Colocalization / protein-protein interaction between eNOS and Hb α (eNOS and Hb α complex; thoracodorsal arteries, 5 μmol/L peptide, 20 minutes): significant loss of protein-protein interaction
- cGMP accumulation with L-NAME (thoracodorsal arteries [1]; phenylephrine stimulation plus L-NAME): reversed
- cGMP accumulation (thoracodorsal arteries [1]; phenylephrine stimulation, compared to Scr X peptide): significant increase
- Basal eNOS phosphorylation on serine 1177 [2]: no differences
- Constriction in phenylephrine dose response curves (thoracodorsal arteries [3]; compared to untreated arteries): significant decrease in constriction
- Emax, vascular reactivity dose response curves (thoracodorsal arteries [3]; phenylephrine dose response, thoracodorsal arteries perfused with peptide): 68.0 ± 5.3 % initial diameter
- Constriction in phenylephrine dose response curves with L-NAME (thoracodorsal arteries [3]; plus L-NAME 100 μmol/L): reversed
- Magnitude of phenylephrine induced constriction [4]: no alteration
